Measurements: US10093683B2, “Factor XIa inhibitors” (Merck Sharp & Dohme Corp., priority 2014, dated 2018)

Key:
human Factor XIa = human Factor XIa (Homo sapiens (Human), UniProt P03951); assay: Factor XIa Assay; format: biochemical; conditions: purified human Factor XIa 40 pM, Z-Gly-Pro-Arg-AFC 100 μM, pH 7.4; read-out: FXIa Ki
Method in brief: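 Purified human FXIa (40 pM final) hydrolysing fluorogenic Z-Gly-Pro-Arg-AFC (100 μM) in 50 mM HEPES pH 7.4, 150 mM NaCl, 5 mM CaCl2, 0.1% PEG 8000, at room temperature or 37° C. Initial velocities measured after enzyme–inhibitor equilibration; Ki from Vo/Vi versus [I], assuming competitive inhibition.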

Human plasma kallikrein = Human plasma kallikrein (Homo sapiens (Human), UniProt P03952); assay: Kallikrein Assay; format: biochemical; conditions: purified Human plasma kallikrein 0.5 nM, Acetyl-K-P-R-AFC, pH 7.4; Ki from IC50 by Cheng Prusoff
Human plasma kallikrein, sequence (P03952 391-638): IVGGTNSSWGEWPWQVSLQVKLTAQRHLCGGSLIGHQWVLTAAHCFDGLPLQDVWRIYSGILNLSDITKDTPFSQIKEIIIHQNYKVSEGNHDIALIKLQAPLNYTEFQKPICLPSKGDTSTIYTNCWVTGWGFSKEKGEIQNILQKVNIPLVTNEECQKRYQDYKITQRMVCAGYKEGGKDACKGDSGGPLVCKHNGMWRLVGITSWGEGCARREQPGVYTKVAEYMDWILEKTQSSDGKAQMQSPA
Human plasma kallikrein, sequence (P03952 20-390 partner): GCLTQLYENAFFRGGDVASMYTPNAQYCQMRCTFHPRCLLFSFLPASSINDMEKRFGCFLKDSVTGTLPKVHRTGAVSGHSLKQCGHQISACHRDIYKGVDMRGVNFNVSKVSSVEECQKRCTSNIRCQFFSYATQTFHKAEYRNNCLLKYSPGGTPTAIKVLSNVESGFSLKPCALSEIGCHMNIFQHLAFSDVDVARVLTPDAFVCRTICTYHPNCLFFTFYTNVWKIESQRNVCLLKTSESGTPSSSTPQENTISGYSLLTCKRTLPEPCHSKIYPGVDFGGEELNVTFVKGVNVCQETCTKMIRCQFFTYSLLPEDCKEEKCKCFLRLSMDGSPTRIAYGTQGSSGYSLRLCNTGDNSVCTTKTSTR
Method in brief: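 Purified human plasma kallikrein (0.5 nM final) with Acetyl-K-P-R-AFC substrate ([…]) in 50 mM HEPES pH 7.4, 150 mM NaCl, 5 mM CaCl2, 0.1% PEG 8000, after enzyme-inhibitor equilibration. Fluorescence (405 ex/510 em) under linear conditions; IC50 from four-parameter fit, converted to Ki by Cheng-Prusoff.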

human Factor XIa, sequence (P03951 388-625): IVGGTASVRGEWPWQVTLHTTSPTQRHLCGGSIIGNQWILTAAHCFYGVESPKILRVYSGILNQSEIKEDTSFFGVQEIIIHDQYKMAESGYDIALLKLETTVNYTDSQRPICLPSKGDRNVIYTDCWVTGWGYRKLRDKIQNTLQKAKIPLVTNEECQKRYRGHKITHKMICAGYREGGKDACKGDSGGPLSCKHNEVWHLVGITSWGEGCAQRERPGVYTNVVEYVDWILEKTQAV
human Factor XIa, sequence (P03951 19-387 partner): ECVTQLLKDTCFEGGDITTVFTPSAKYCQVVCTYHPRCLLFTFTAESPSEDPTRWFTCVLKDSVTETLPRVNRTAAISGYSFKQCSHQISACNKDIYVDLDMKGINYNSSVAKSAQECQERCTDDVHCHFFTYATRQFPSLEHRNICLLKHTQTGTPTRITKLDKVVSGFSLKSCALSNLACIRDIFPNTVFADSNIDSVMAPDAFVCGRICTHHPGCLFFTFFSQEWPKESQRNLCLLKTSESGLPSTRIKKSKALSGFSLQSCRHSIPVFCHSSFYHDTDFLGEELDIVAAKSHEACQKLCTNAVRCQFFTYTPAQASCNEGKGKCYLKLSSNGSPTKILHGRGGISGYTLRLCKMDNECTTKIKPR

Ki (human Factor XIa) [µM] | Ki (Human plasma kallikrein) [µM] | SMILES
0.00348 | 0.0326 | COC(=O)Nc1ccc(C(=O)N[C@@H](Cc2ccc(-c3cc[nH]n3)cc2)C(=O)N2CC[C@@]3(C2)OC(=O)Nc2ccc(Cl)cc23)cc1 [Example 77, methyl (4-(((S)-3-(4-(1H-pyrazol-3-yl)phenyl)-1-((R)-6-chloro-2-oxo-1,2-dihydrospiro[benzo[d][1,3]oxazine-4,3′-pyrrolidin]-1′-yl)-1-oxopropan-2-yl)carbamoyl)phenyl)carbamate]
0.00237 | 0.0245 | COC(=O)Nc1ccc(C(=O)N[C@@H](Cc2ccc(-c3cn[nH]c3)cc2)C(=O)N2CC[C@@]3(C2)OC(=O)Nc2ccc(Cl)cc23)cc1 [Example 78, methyl (4-(((S)-3-(4-(1H-pyrazol-4-yl)phenyl)-1-((R)-6-chloro-2-oxo-1,2-dihydrospiro[benzo[d][1,3]oxazine-4,3′-pyrrolidin]-1′-yl)-1-oxopropan-2-yl)carbamoyl)phenyl)carbamate]
0.00998 | 0.0145 | COC(=O)Nc1ccc(C(=O)N[C@@H](Cc2ccc(-c3cc[nH]c3)cc2)C(=O)N2CC[C@@]3(C2)OC(=O)Nc2ccc(Cl)cc23)cc1 [Example 79, methyl (4-(((S)-3-(4-(1H-pyrrol-3-yl)phenyl)-1-((R)-6-chloro-2-oxo-1,2-dihydrospiro[benzo[d][1,3]oxazine-4,3′-pyrrolidin]-1′-yl)-1-oxopropan-2-yl)carbamoyl)phenyl)carbamate]
0.0299 | 0.00798 | COC(=O)Nc1ccc(C(=O)N[C@@H](Cc2ccc(-c3cc(C(F)(F)F)nn3C)cc2)C(=O)N2CC[C@@]3(C2)OC(=O)Nc2ccc(Cl)cc23)cc1 [Example 81, methyl (4-(((S)-1-((R)-6-chloro-2-oxo-1,2-dihydrospiro[benzo[d][1,3]oxazine-4,3′-pyrrolidin]-1′-yl)-3-(4-(1-methyl-3-(trifluoromethyl)-1H-pyrazol-5-yl)phenyl)-1-oxopropan-2-yl)carbamoyl)phenyl)carbamate]
0.00712 | 0.0117 | COC(=O)Nc1ccc(C(=O)N[C@@H](Cc2ccc(-c3conc3C)cc2)C(=O)N2CC[C@@]3(C2)OC(=O)Nc2ccc(Cl)cc23)cc1 [Example 82, methyl (4-(((S)-1-((R)-6-chloro-2-oxo-1,2-dihydrospiro[benzo[d][1,3]oxazine-4,3′-pyrrolidin]-1′-yl)-3-(4-(3-methylisoxazol-4-yl)phenyl)-1-oxopropan-2-yl)carbamoyl)phenyl)carbamate]
0.00265 | 0.0311 | COC(=O)Nc1ccc(C(=O)N[C@@H](Cc2ccc(-c3cnn(C)c3)cc2)C(=O)N2CC[C@@]3(C2)OC(=O)Nc2ccc(Cl)cc23)cc1 [Example 83, methyl (4-(((S)-1-((R)-6-chloro-2-oxo-1,2-dihydrospiro[benzo[d][1,3]oxazine-4,3′-pyrrolidin]-1′-yl)-3-(4-(1-methyl-1H-pyrazol-4-yl)phenyl)-1-oxopropan-2-yl)carbamoyl)phenyl)carbamate]
0.0281 | 0.0284 | COC(=O)Nc1ccc(C(=O)N[C@@H](Cc2cc(C3CC3)no2)C(=O)N2CC[C@@]3(C2)OC(=O)Nc2ccc(Cl)cc23)cc1 [Example 84, methyl (4-(((S)-1-((R)-6-chloro-2-oxo-1,2-dihydrospiro[benzo[d][1,3]oxazine-4,3′-pyrrolidin]-1′-yl)-3-(3-cyclopropylisoxazol-5-yl)-1-oxopropan-2-yl)carbamoyl)phenyl)carbamate]
0.00365 | 0.011 | COC(=O)Nc1ccc(C(=O)N[C@@H](CC(=O)N2CCCCC2)C(=O)N2CC[C@@]3(C2)OC(=O)Nc2ccc(Cl)cc23)cc1 [Example 87, methyl (4-(((S)-1-((R)-6-chloro-2-oxo-1,2-dihydrospiro[benzo[d][1,3]oxazine-4,3′-pyrrolidin]-1′-yl)-1,4-dioxo-4-(piperidin-1-yl)butan-2-yl)carbamoyl)phenyl)carbamate]
0.00547 | 0.00142 | COC(=O)Nc1ccc(C(=O)N[C@@H](CC(=O)N2CC3CCCC32)C(=O)N2CCC[C@@]3(C2)OC(=O)Nc2ccc(Cl)cc23)cc1 (stereo partly drawn) [Example 94, methyl (4-(((2S)-4-(6-azabicyclo[3.2.0]heptan-6-yl)-1-((R)-6-chloro-2-oxo-1,2-dihydrospiro[benzo[d][1,3]oxazine-4,3′-piperidin]-1′-yl)-1,4-dioxobutan-2-yl)carbamoyl)phenyl)carbamate]
0.00359 | 0.00181 | COC(=O)Nc1ccc(C(=O)N[C@@H](CC(=O)N2CC[C@H]2CO)C(=O)N2CCC[C@@]3(C2)OC(=O)Nc2ccc(Cl)cc23)cc1 [Example 95, methyl (4-(((S)-1-((R)-6-chloro-2-oxo-1,2-dihydrospiro[benzo[d][1,3]oxazine-4,3′-piperidin]-1′-yl)-4-((S)-2-(hydroxymethyl)azetidin-1-yl)-1,4-dioxobutan-2-yl)carbamoyl)phenyl)carbamate]
0.0511 | 0.0153 | COC(=O)Nc1ccc(C(=O)N[C@@H](CC(=O)N2CC(OC)C2)C(=O)N2CCC[C@@]3(C2)OC(=O)Nc2ccc(Cl)cc23)cc1 [Example 97, methyl (4-(((S)-1-((R)-6-chloro-2-oxo-1,2-dihydrospiro[benzo[d][1,3]oxazine-4,3′-piperidin]-1′-yl)-4-(3-methoxyazetidin-1-yl)-1,4-dioxobutan-2-yl)carbamoyl)phenyl)carbamate]
0.0383 | 0.0254 | COC(=O)Nc1ccc(C(=O)N[C@@H](CC(=O)NCc2ccnn2C)C(=O)N2CCC[C@@]3(C2)OC(=O)Nc2ccc(Cl)cc23)cc1 [Example 98, methyl (4-(((S)-1-((R)-6-chloro-2-oxo-1,2-dihydrospiro[benzo[d][1,3]oxazine-4,3′-piperidin]-1′-yl)-4-(((1-methyl-1H-pyrazol-5-yl)methyl)amino)-1,4-dioxobutan-2-yl)carbamoyl)phenyl)carbamate]
0.0404 | 0.0176 | COC(=O)Nc1ccc(C(=O)N[C@@H](CC(=O)NCC2CC2)C(=O)N2CCC[C@@]3(C2)OC(=O)Nc2ccc(Cl)cc23)cc1 [Example 99, methyl (4-(((S)-1-((R)-6-chloro-2-oxo-1,2-dihydrospiro[benzo[d][1,3]oxazine-4,3′-piperidin]-1′-yl)-4-((cyclopropylmethyl)amino)-1,4-dioxobutan-2-yl)carbamoyl)phenyl)carbamate]
0.0399 | 0.0197 | COC(=O)Nc1ccc(C(=O)N[C@@H](CC(=O)N2CC(O)(C3CC3)C2)C(=O)N2CCC[C@@]3(C2)OC(=O)Nc2ccc(Cl)cc23)cc1 [Example 100, methyl (4-(((S)-1-((R)-6-chloro-2-oxo-1,2-dihydrospiro[benzo[d][1,3]oxazine-4,3′-piperidin]-1′-yl)-4-(3-cyclopropyl-3-hydroxyazetidin-1-yl)-1,4-dioxobutan-2-yl)carbamoyl)phenyl)carbamate]
0.0364 | 0.0103 | COC(=O)Nc1ccc(C(=O)N[C@@H](CC(=O)N2CC[C@@H](OC)C2)C(=O)N2CCC[C@@]3(C2)OC(=O)Nc2ccc(Cl)cc23)cc1 [Example 101, methyl (4-(((S)-1-((R)-6-chloro-2-oxo-1,2-dihydrospiro[benzo[d][1,3]oxazine-4,3′-piperidin]-1′-yl)-4-((R)-3-methoxypyrrolidin-1-yl)-1,4-dioxobutan-2-yl)carbamoyl)phenyl)carbamate]
0.00077 | < 0.00136 | COC(=O)Nc1ccc(C(=O)N[C@@H](CC(=O)N2CC[C@@H]2C)C(=O)N2CCC[C@@]3(C2)OC(=O)Nc2ccc(Cl)cc23)cc1 [Example 102, methyl (4-(((S)-1-((R)-6-chloro-2-oxo-1,2-dihydrospiro[benzo[d][1,3]oxazine-4,3′-piperidin]-1′-yl)-4-((S)-2-methylazetidin-1-yl)-1,4-dioxobutan-2-yl)carbamoyl)phenyl)carbamate]
0.015 | 0.00528 | COC(=O)Nc1ccc(C(=O)N[C@@H](CC(F)F)C(=O)N2CCC[C@@]3(C2)OC(=O)Nc2ccc(Cl)c(F)c23)cc1 [Example 104, methyl (4-(((S)-1-((R)-6-chloro-5-fluoro-2-oxo-1,2-dihydrospiro[benzo[d][1,3]oxazine-4,3′-piperidin]-1′-yl)-4,4-difluoro-1-oxobutan-2-yl)carbamoyl)phenyl)carbamate]
0.00999 | 0.00304 | COC(=O)Nc1ccc(C(=O)N[C@@H](CCF)C(=O)N2CCC[C@@]3(C2)OC(=O)Nc2ccc(Cl)c(F)c23)cc1 [Example 105, methyl (4-(((S)-1-((R)-6-chloro-5-fluoro-2-oxo-1,2-dihydrospiro[benzo[d][1,3]oxazine-4,3′-piperidin]-1′-yl)-4-fluoro-1-oxobutan-2-yl)carbamoyl)phenyl)carbamate]
0.052 | 0.147 | COC(=O)Nc1ccc(C(=O)N[C@@H](CC(C)O)C(=O)N2CCC3(C2)OC(=O)Nc2ccc(Cl)cc23)cc1 (stereo partly drawn) [Example 110, methyl (4-(((2S)-1-((R)-6-chloro-2-oxo-1,2-dihydrospiro[benzo[d][1,3]oxazine-4,3′-pyrrolidin]-1′-yl)-4-hydroxy-1-oxopentan-2-yl)carbamoyl)phenyl)carbamate]
0.012 | 0.076 | COC(=O)Nc1ccc(C(=O)N[C@@H](CC(C)(C)O)C(=O)N2CC[C@@]3(C2)OC(=O)Nc2ccc(Cl)cc23)cc1 [Example 111, methyl (4-(((S)-1-((R)-6-chloro-2-oxo-1,2-dihydrospiro[benzo[d][1,3]oxazine-4,3′-pyrrolidin]-1′-yl)-4-hydroxy-4-methyl-1-oxopentan-2-yl)carbamoyl)phenyl)carbamate]
